Measured values from patent US9161927B2, “Drug combinations containing PDE4 inhibitors and NSAIDs” (Boehringer Ingelheim International GmbH, priority 2009, dated 2015).
Where two headings read alike, the source gives them in different places.

Columns and labels:
[1] = system: male Wistar rats; assay: Experiment 4: roflumilast-mediated diarrhoea and mesentery histopathology in rats, with or without SC-560 or lumiracoxib; assay type: in vivo, rat; conditions: affected animals out of animals examined; p.o. for four days, 95 hours after t0; roflumilast 10 mg/kg at 1300, SC-560 or lumiracoxib 2 mg/kg at 0800 and 1700
Method: (§1) Six male Wistar rats in each group were treated for four days with the following substances (all substances are given p.o.=orally):
(§2) Group 1 (“control group”): Six male Wistar rats were given a daily dose of 0.5% Natrosol (placebo) at the times 0800, 1300 and 1700 hours.
(§3) Group 2 (“roflumilast group”): Six male Wistar rats were given a daily dose of 0.5% Natrosol (placebo) at 0800 and 1700 hours and 10 mg/kg roflumilast (PDE4 inhibitor) at 1300 hours.
(§4) Group 6 (“lumiracoxib group”): Six male Wistar rats were given a daily dose of 2 mg/kg lumiracoxib (NSAID, selective for COX-2) at the times 0800 and 1700 hours and 0.5% Natrosol at 1300 hours.
(§5) At the end of the experiment (95 hours after t0 (=the time of the first administration on day 1, 0800 hours)) the rats from the individual groups were examined phenotypically and histopathologically for the presence of multifocal perivascular mononuclear infiltration (=inflammation parameter) in the mesentery and for the proliferation of fibroblasts in the mesentery. In addition, the occurrence of diarrhoea in the rats from the different groups was noted.

[2] = system: male Wistar rats; assay: Experiment 3: roflumilast-mediated weight loss, leukocytosis and neutrophilia in rats, with or without SC-560 or lumiracoxib; assay type: in vivo, rat; conditions: for leukocytosis (white blood cells, FIG. 2B on the left) / neutrophilia (neutrophils in % of white blood cells, FIG. 2B on the right): 95 hours after t0; for leukocytosis (white blood cells, FIG. 2B on the left) / neutrophilia (neutrophils in % of white blood cells, FIG. 2B on the right) / weight loss (body weight as percentage change from t0, FIG. 2A): p.o. for four days, roflumilast 10 mg/kg at 1300, SC-560 or lumiracoxib 2 mg/kg at 0800 and 1700, compared with control group
Method: as §1, §2, §3, §4
The average±standard deviation of the body weights at time t0 was 306±11 g.
At the end of the experiment (95 hours after t0 (=the time of the first administration on day 1, 0800 hours)) the proportion of white blood cells (×1000 cells/μl blood, FIG. 2B, left-hand Figure) and the proportion of neutrophils (in % of white blood cells, FIG. 2B, right-hand Figure) were determined from the blood of 5 of the rats from the individual groups.

[3] = system: male Wistar rats; assay: Experiment 1: roflumilast-mediated weight loss, leukocytosis and neutrophilia in rats, with or without diclofenac
Method: as §1, §2, §3
(§6) Group 3 (“roflumilast+diclofenac group”): Six male Wistar rats were given a daily dose of 1 mg/kg diclofenac (NSAID) at the times 0800 and 1700 hours and 10 mg/kg roflumilast (PDE4 inhibitor) at 1300 hours.
(§7) Group 4 (“diclofenac group”): Six male Wistar rats were given a daily dose of 1 mg/kg diclofenac (NSAID) at the times 0800 and 1700 hours and 0.5% Natrosol (placebo) at 1300 hours.
(§8) For pharmacokinetic analysis (determining the plasma levels of the substances) on day 4 one rat from each group was used; these rats were no longer available for other parameters under investigation.
The average±standard deviation of the body weights at time t0 was 355±17 g.
At the end of the experiment (95 hours after t0 (=the time of the first administration on day 1, 0800)) the proportion of white blood cells (×1000 cells/μl blood, FIG. 1B, left-hand Figure) and the proportion of neutrophils (in % of white blood cells, FIG. 1B, right-hand Figure) were determined from the blood of 4 or 5 of the rats from the individual groups.

[4] = system: male Wistar rats; assay type: in vivo; conditions: affected animals out of animals examined; p.o. for four days, 95 hours after t0; roflumilast 10 mg/kg at 1300, diclofenac 1 mg/kg at 0800 and 1700
Method: as §1, §2, §3, §6, §7, §8, §5

[5] = NSAID 2 mg/kg at 0800 and 1700 co-administered with roflumilast 10 mg/kg at 1300, p.o. for four days
[6] = 95 hours after t0, p.o. for four days, roflumilast 10 mg/kg at 1300, diclofenac 1 mg/kg at 0800 and 1700, compared with control group

Structure (SMILES) | Diarrhoea [1] | leukocytosis (white blood cells, FIG. 2B on the left) [2] | neutrophilia (neutrophils in % of white blood cells, FIG. 2B on the right) [2] | protective effect on roflumilast-mediated leukocytosis [2, 5] | protective effect on roflumilast-mediated neutrophilia [2, 5] | protective effect on roflumilast-mediated weight loss [2, 5] | weight loss (body weight as percentage change from t0, FIG. 2A) [2] | leukocytosis (white blood cells, FIG. 1B on the left) [3, 6] | neutrophilia (neutrophils in % of white blood cells, FIG. 1B on the right) [3, 6] | weight loss (body weight as percentage change from t0, FIG. 1A) ([3]; p.o. for four days, roflumilast 10 mg/kg at 1300, diclofenac 1 mg/kg at 0800 and 1700, compared with control group) | Diarrhoea [4] | Mesentery: Proliferation of fibroblasts [4] | Mesentery: multifocal perivascular mononuclear infiltration (=inflammation parameter) [4] | Mesentery: Proliferation of fibroblasts [1] | Mesentery: multifocal perivascular mononuclear infiltration (=inflammation parameter) [1] | rats which died between day 4 and day 5 of the experiment ([3]; group of six rats, roflumilast 10 mg/kg p.o. daily)
COc1ccc(-n2nc(C(F)(F)F)cc2-c2ccc(Cl)cc2)cc1 [SC-560] | 0/6 | very similar to the control groups | very similar to the control groups | absolutely no protective effect | absolutely no protective effect | absolutely no protective effect | very similar to the control groups |  |  |  |  |  |  |  |  | 
O=C(O)Cc1ccccc1Nc1c(Cl)cccc1Cl [diclofenac] |  |  |  |  |  |  |  | very similar to the control groups | very similar to the control groups | very similar to the control groups | 0/6 | 0/5 | 0/5 |  |  | 
Cc1ccc(Nc2c(F)cccc2Cl)c(CC(=O)O)c1 [lumiracoxib] | 0/6 | very similar to the control groups | very similar to the control groups |  |  |  | very similar to the control groups |  |  |  |  |  |  | 0/5 | 0/5 | 
O=C(Nc1c(Cl)cncc1Cl)c1ccc(OC(F)F)c(OCC2CC2)c1 [roflumilast] | 2/6 | observed | observed |  |  |  | observed |  |  |  | 5/6 | 4/4 | 4/4 | 5/5 | 5/5 | one rat
